Assay results as given in BindingDB's records for patent US12378224 (Dong-A Socio Holdings Co., 2025).

What follows are compounds tested against T1, Tyrosine-protein kinase Mer/Tyrosine-protein kinase receptor UFO/Tyrosine-protein kinase receptor TYRO3 (Human, UniProt P30530+Q06418+Q12866) (assay: HTRF Kinase Activity Biochemical Assay).
T1 sequence (Q06418 whole entry): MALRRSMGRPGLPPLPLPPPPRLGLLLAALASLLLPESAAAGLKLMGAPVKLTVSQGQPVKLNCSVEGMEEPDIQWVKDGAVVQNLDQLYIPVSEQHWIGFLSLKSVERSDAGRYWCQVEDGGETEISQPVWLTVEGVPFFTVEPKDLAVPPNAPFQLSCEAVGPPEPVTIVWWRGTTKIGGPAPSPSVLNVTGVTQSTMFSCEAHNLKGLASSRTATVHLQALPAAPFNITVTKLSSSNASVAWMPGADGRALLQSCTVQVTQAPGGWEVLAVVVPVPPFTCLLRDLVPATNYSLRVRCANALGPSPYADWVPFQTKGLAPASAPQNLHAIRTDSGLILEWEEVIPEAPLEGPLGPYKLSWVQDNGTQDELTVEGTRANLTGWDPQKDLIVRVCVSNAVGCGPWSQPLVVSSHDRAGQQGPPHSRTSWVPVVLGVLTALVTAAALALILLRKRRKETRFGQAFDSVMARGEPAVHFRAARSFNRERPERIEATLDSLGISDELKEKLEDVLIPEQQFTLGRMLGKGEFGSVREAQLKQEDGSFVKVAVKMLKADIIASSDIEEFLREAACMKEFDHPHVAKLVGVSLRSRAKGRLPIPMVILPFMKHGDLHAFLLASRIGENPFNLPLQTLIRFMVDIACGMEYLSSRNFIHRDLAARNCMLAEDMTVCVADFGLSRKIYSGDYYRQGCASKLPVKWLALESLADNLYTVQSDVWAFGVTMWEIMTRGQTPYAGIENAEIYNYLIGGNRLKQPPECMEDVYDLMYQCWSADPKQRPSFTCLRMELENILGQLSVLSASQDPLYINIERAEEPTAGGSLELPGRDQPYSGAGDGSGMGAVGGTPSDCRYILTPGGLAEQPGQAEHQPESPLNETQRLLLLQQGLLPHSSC
T1 sequence (P30530 whole entry): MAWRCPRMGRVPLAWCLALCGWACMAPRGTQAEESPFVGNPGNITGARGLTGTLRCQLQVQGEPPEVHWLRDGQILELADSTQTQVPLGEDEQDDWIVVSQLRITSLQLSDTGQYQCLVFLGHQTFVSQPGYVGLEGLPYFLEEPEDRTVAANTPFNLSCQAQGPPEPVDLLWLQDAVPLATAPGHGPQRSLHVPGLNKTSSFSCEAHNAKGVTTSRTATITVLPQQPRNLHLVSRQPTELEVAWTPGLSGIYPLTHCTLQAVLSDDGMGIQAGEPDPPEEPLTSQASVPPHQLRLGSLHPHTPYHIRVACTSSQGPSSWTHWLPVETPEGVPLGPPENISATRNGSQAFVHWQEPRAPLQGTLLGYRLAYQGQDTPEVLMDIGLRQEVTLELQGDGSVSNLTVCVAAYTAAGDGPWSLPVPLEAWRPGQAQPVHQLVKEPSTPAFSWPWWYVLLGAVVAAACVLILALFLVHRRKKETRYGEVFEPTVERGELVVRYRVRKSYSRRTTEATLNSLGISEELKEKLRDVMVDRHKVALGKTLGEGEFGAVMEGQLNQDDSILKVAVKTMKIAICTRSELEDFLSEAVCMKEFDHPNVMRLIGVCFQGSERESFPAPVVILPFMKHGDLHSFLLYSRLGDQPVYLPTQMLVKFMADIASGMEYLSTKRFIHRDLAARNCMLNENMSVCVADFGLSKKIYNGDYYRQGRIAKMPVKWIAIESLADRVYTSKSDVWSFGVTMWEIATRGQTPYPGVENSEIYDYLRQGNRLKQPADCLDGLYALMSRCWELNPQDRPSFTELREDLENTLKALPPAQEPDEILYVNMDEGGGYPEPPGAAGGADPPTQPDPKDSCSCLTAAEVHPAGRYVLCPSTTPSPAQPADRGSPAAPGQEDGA
T1 sequence (Q12866 whole entry): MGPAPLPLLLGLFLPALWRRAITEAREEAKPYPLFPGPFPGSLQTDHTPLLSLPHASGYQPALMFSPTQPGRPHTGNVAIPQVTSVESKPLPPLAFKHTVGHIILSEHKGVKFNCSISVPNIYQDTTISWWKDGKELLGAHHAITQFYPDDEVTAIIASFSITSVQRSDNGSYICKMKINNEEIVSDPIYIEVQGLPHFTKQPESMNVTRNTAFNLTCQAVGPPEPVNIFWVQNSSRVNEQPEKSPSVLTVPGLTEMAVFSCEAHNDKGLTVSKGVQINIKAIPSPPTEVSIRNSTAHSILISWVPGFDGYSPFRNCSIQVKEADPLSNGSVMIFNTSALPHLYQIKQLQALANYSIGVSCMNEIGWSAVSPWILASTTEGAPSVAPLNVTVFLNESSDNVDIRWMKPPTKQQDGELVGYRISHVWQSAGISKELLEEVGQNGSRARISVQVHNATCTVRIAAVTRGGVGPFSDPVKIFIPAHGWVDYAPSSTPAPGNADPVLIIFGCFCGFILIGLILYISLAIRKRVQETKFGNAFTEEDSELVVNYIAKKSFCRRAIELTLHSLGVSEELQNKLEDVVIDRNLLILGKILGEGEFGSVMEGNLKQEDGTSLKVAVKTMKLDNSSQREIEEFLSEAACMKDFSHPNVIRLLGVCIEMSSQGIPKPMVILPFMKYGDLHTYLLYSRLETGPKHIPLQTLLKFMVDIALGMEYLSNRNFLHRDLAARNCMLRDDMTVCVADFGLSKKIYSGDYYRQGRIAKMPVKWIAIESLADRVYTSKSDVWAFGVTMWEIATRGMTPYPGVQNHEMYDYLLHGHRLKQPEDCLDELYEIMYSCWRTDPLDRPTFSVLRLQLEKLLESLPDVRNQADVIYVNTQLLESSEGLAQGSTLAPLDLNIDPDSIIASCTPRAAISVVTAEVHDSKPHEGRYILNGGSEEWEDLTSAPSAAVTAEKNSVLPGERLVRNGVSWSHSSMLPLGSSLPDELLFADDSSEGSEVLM
Description: Table 3: For the SAR (structure-activity relationship) and compound screening, HTRF (Homogeneous Time Resolved Fluorescence) kinase activity assay was employed for all MER, AXL and TYRO3 kinases using Cisbio HTRF KinEASE™-TK kit (Cisbio, USA). The kit includes biotin-labeled TK substrate, streptavidin-XL665, Eu3+-cryptate-labeled TK antibody and HTRF Detection buffer. There are two main steps in the kinase assay: kinase reaction and detection of phosphorylated substrate. The reaction was carried out in white low volume 384-well plate (Corning, USA) with 25 nL compound in dimethyl sulfoxide in each well. […] Then the reaction was stopped after 1 hour incubation at room temperature by adding 5 uL of HTRF Detection buffer which also contains 0.375 nM Eu3+-cryptate-labeled TK antibody and 0.062 uM streptavidin-XL665(SA-XL665) to allow for detection of the phosphorylated peptide product. After 1 h incubation at room temperature, the fluorescence intensity was measured with Envision™ plate reader (PerkinElmer, USA). Upon excitation at 340 nm by UV, the energy from Eu3+ donor of the antibody is transferred to the FRET acceptor XL665, and […] emits light at 665 nm. The level of kinase activity was quantified by the HTRF ratio that calculated from the intensity of emission at 665 nm and emission at 620 nm (fluorescence intensity @ 665 nm/fluorescence intensity @ 620 nm×10,000). The recombinant protein of human MER (528-end) was purchased from Carnabio, Japan. The recombinant human AXL (473-end) and TYRO3 (455-end) were purchased from SignalChem, Canada.

Question: How did the IC50 turn out when `Cn1cc(-c2cnc(N)c(C(=O)N[C@@H]3CCN(C(=O)Nc4ccc(C#N)cc4)C3)c2)cn1` [US12378224, Example 7] was run?
Answer: > 1000 nM

Question: How did the IC50 turn out when `Nc1ncc(-c2ccc(S(=O)(=O)N3CCC3)cc2)cc1C(=O)N[C@@H]1CCN(C(=O)c2ccc(-c3ccccc3Cl)cc2)C1` [US12378224, Example 574] was run?
Answer: > 1000 nM

Question: `Nc1ncc(-c2ccnc(N3CCNCC3)c2)cc1C(=O)N[C@@H]1CCN(C(=O)c2ccc(-c3ccc(F)cc3Cl)cc2)C1` [US12378224, Example 581] was tested. Which IC50 did it give?
Answer: < 10 nM

Question: With `CN1CCN(c2ccc(-c3cnc(N)c(C(=O)N[C@@H]4CCN(C(=O)c5ccc(-c6ccc(F)cc6Cl)cc5)C4)c3)cc2)CC1` [US12378224, Example 585] as the compound, how does the IC50 read?
Answer: < 10 nM

Question: How did the IC50 turn out when `CN1CCC(NC(=O)c2ccc(-c3cnc(N)c(C(=O)N[C@@H]4CCN(C(=O)c5ccc(-c6ccccc6Cl)cc5)C4)c3)cc2)CC1` [US12378224, Example 591] was run?
Answer: < 10 nM

Question: How did the IC50 turn out when `CC1CCC(NC(=O)c2ccc(-c3cnc(N)c(C(=O)N[C@@H]4CCN(C(=O)c5ccc(-c6ccccc6Cl)cc5)C4)c3)cc2)CC1` (some centres undefined) [US12378224, Example 592] was run?
Answer: > 1000 nM

Each compound was assayed against T2, Tyrosine-protein kinase Mer/Tyrosine-protein kinase UFO (Human, UniProt P30530+Q12866) (assay: TR-FRET Kinase Activity Biochemical Assay).
T2 sequence (P30530 whole entry): T1 sequence (P30530 whole entry)
T2 sequence (Q12866 whole entry): T1 sequence (Q12866 whole entry)
From the text: Table 2: For the SAR (structure-activity relationship) and compound screening, LanthaScreen™ TR-FRET (Time-Resolved fluorescence energy transfer) assay was employed using the phospho-tyrosine specific Terbium (Tb)-labelded antibody with a fluorescein labeled poly-GT (glutamate-tyrosine) as a substrate. Upon excitation at 340 nm by UV, the energy from Tb donor of the antibody is transferred to the fluorescein of the phosphorylated poly GT substrate, and fluorescein emits light at 520 nm. The ratio between the intensity of primary emission at 495 nm and that of secondary emission at 520 nm was used to quantify the level of kinase activity. The recombinant proteins of human c-MER and AXL catalytic domains, Fluorescein-labeled poly-GT substrate, Tb-labeled anti-phosphorylated tyrosine antibodies, the kinase assay buffer, and 0.5M EDTA solution were purchased (Life technologies, USA). The TR-FRET assays were carried out in the white low volume 384-well plate (Corning, USA). […] 10 mM EDTA was added to terminate the enzyme reaction, and the level of phosphorylation of poly-GT substrate was determined following 30 min incubation with 2 nM Tb-labeled antibody. The fluorescence intensity was measured with Envision™ plate reader (PerkinElmer, USA).

Question: For `Cn1cc(-c2cnc(N)c(C(=O)N[C@@H]3CCN(C(=O)c4ccc(-c5cccc(Cl)c5Cl)cc4)C3)c2)cn1` [US12378224, Example 369], which IC50 is on record?
Answer: < 10 nM

Question: Which IC50 does the source give for `CN1CCN(Cc2ccc(-c3cnc(N)c(C(=O)N[C@@H]4CCN(C(=O)c5ccc(-c6ccccc6Cl)cc5)C4)c3)cc2)CC1` [US12378224, Example 572] here?
Answer: < 10 nM

Question: How did the IC50 turn out when `CN1CCC(CNC(=O)c2ccc(-c3cnc(N)c(C(=O)N[C@@H]4CCN(C(=O)c5ccc(-c6ccccc6Cl)cc5)C4)c3)cc2)C1` (some centres undefined) [US12378224, Example 594] was run?
Answer: < 10 nM
